In patent US8178135B2, “Aqueous solution of conophylline and/or conophyllidine” (Keio University, priority 2006, dated 2012):
Like-named read-outs stand apart in the source and are kept apart here.

Experiments:
[1] = test system: pancreatic β cells; details: cited from earlier work
[2] = Amounts in lysate, acid extract and fractions after neutralization to pH 6.0, centrifugation and ultrafiltration (HPLC); type: physicochemical; details: for amount in Aqueous extract: clarified 0.1 N hydrochloric acid extract; for amount in Lysate: distilled water, 50° C. 30 min, centrifuged supernatant; for amount in Centrifuged supernatant: extract adjusted to pH 6.0, 1,500×g 5 min; for amount in Centrifuged precipitate: extract adjusted to pH 6.0, precipitate dissolved in equal volume of 50% ethanol; for amount in UF filtrate: pH 6.0, passed ultrafiltration membrane; for amount in UF filtrate / amount in UF debris: cut-off 50,000; for amount in UF debris: pH 6.0, retained on ultrafiltration membrane
Description: (§1) Conophylline and conophyllidine were analyzed by reversed phase HPLC in a high pressure gradient mode using a YMC-Pack Pro C18 RS column (4.6 mm×250 mm; manufactured by YMC Co., Ltd.). The mobile phase consisted of 1% by volume acetic acid as solvent A and acetonitrile as solvent B. The gradient program was set to start with 10% B at a flow rate of 1 ml/min, and the portion of B was increased linearly to 55% over 25 min. The column temperature was 40° C. and UV absorption was monitored at the wavelength of 335 nm. The reference solutions of conophylline and conophyllidine were prepared immediately before measurement and their concentrations were calculated from the absorbance at 335 nm of the solutions prepared.
200 ml of 0.1 N hydrochloric acid was added to 4 g of pulverized product of the dried leaves obtained by the same method as in Example 2, which was then extracted at 50° C. for 30 min. After the debris was removed by paper filtration, the extract was ultrafiltrated with pencil-type module SLP-0053 manufactured by Asahi Kasei Corporation (molecular weight cut-off 10,000) and 165 ml of filtrate was recovered. The pH of the filtrate was adjusted by gradually adding sodium carbonate aqueous solution and the precipitate formed was recovered by centrifugation. The precipitate was then vacuum-evaporated to yield 70 mg of dried product. This dried product contained 9.8 μg of conophylline and 13.3 μg of conophyllidine per mg
The extract was prepared and clarified by removing debris by paper filtration in the same method as in Example 5. Then 100 ml of the clarified extract was adjusted to pH 6.0 with sodium hydroxide aqueous solution. This solution was centrifuged (1,500×g, 5 min) to separate into a supernatant (centrifuged supernatant) and precipitate (centrifuged precipitate). Next, the precipitate was dissolved in an equal volume of 50% ethanol, and the amounts of the active ingredients (conophylline and conophyllidine) in the clarified extract, the centrifuged supernatant, and the centrifuged precipitate were measured by HPLC. Further, the amounts of the active ingredient in the supernatant (lysate) obtained by adding 200 ml of distilled water to 4 g of the pulverized product of the dried leaves of Tabernaemontana divaricata and heating at 50° C. for 30 min, followed by centrifugation at 1,500×g for 5 min were also measured by HPLC.
Further, a sodium hydroxide aqueous solution was added to 1 ml of the above-described clarified extract to adjust pH to 6.0. This extract was treated with an ultrafiltration membrane USY-5 (molecular weight cut-off: 50,000), manufactured by Advantech Co., Ltd. and the filtrate which had passed through the membrane was recovered (UF filtrate). At the same time, the remaining component on the membrane was dissolved and recovered using 1 ml of 50% ethanol (UF debris), and the amounts of the active ingredients in the UF filtrate and UF debris were measured by HPLC (Table 5). As a result, no amount of conophylline or conophyllidine was not detected in the filtrate at all; almost all was present in the fraction which had not permeated through the ultrafiltration membrane.

[3] = Blood concentrations after oral administration of acetic acid extract or dried pulverized leaves to healthy rats; type: in vivo, rat
Description: Dried leaves of Tabernaemontana divaricata were pulverized with a home mill, 1 g of the pulverized product was homogenized in 20 ml of 0.3 M acetic acid solution, and the active ingredient was extracted by stirring at 50° C. for 30 min. The supernatant was recovered by centrifugation and concentrated to dryness to obtain 0.3 g of powder (acetic acid extract). This powder contained conophylline and conophyllidine at 1.0 mg/g and 0.8 mg/g, respectively.
Further, 1 g of pulverized leaves was homogenized in 20 ml of distilled water and then concentrated to dryness to obtain 1 g of product (dried pulverized leaves). The amounts of the active ingredients of conophylline and conophyllidine were 0.40 mg/g and 0.35 mg/g, respectively.
Next, 0.2 g of the acetic acid extract and 0.5 g of the dried pulverized leaves were separately suspended in 5 ml of water for injection. These suspensions were administered to 5-week old healthy rats (Crj:CD (SD) IGS, SPF, male) using a sonde by forced oral administration at a dose of 5 ml/kg body weight (n=2 per suspension). Blood was taken from the orbital venous plexus of each rat before oral administration, 1.5, 3, 6, 12, and 24 hours post administration and serum was recovered by centrifugation. The concentrations of conophylline and conophyllidine in the blood were measured by precipitating protein by addition of 2 volumes of acetonitrile to the serum followed by HPLC analysis of the supernatant (Table 6).

[4] = Blood concentrations after oral administration of Crude extract I to rats; type: in vivo, rat
Description: One drop of Tween 80 was added to the crude extract (0.05 g) obtained in Example 1, which was suspended in 5-ml of water for injection. This suspension was administered to 5-week old rats (Crj:CD(SD) IGS, SPF, male) using a sonde by forced oral administration at a dose of 5 ml/kg body weight (n=2). Blood was taken from the orbital venous plexus of each rat at 0.5, 1, 2, 4, 8, 24 hours post administration and serum was recovered by centrifugation. Then, the concentrations of conophylline and conophyllidine in the blood were measured (Table 7) by the same method as in Example 8. As the control, water for injection containing one drop of Tween80 was administered orally at a dose of 5 ml/kg body weight (n=2) and the blood concentrations were measured in the same manner.

[5] = Dissolution of dried ethanol extract in citric acid / citrate buffer at pH 2.6 to 6.0 (HPLC); type: physicochemical
Description: as §1
After some of the dried leaves obtained in Example 1 were pulverized in a mill, 10 g of the pulverized product was extracted with 100 ml of 60% ethanol. Then, the extract was centrifuged and supernatant containing conophylline and conophyllidine was recovered. […] The supernatant was dispensed in 3 ml aliquots into 5 centrifuge tubes and then concentrated to dryness by centrifugation. A buffer (citric acid aqueous solution or sodium citrate buffer) at pH 2.6 to pH 6.0 prepared by appropriately mixing 0.1 M citric acid solution and 0.1 M sodium citrate solution was added at 0.1 ml per tube. After 10 min vigorous stirring, the supernatant was centrifugated again and diluted 10-fold with 50% ethanol. After the dilution, insoluble matter was removed by filtration with a 0.2-μm membrane filter and the contents of conophylline and conophyllidine in the filtrated supernatant were measured by HPLC (Table 2).

[6] = male, Crj:CD(SD) IGS, rat, in vivo, po, blood concentration

CC[C@@]12C=CCN3CC[C@]4(C(=C(C(=O)OC)C1)Nc1cc5c(cc14)[C@H]1[C@@H](O5)[C@H](O)[C@]4(CC)CC(C(=O)OC)=C5Nc6c(cc(O)c(OC)c6OC)[C@@]56CCN1[C@H]46)[C@H]32 (stereo in doubt) [Conophyllidine, conophyllidine]
regeneration of pancreatic β cells [1]: activate regeneration of pancreatic β cells | amount in Aqueous extract [2]: 2.01 µg/mL | amount in Lysate [2]: 0.02 µg/mL | amount in Centrifuged supernatant [2]: 1.41 µg/mL | amount in Centrifuged precipitate [2]: 0.30 µg/mL | amount in UF filtrate [2]: 0.00 µg/mL | amount in UF debris [2]: 2.19 µg/mL | blood concentration ([3]; Dried pulverized leaves oral, healthy rats (animals 3, 4), 6 h): 0.054 µg/mL | blood concentration ([3]; Dried pulverized leaves oral, healthy rats (animals 3, 4), 12 h): 0.013 µg/mL | blood concentration ([3]; Dried pulverized leaves oral, healthy rats (animals 3, 4), 24 h): 0.002 µg/mL | time at which blood concentration reached its maximum ([3]; acetic acid extract oral, rats): 1.5 h | concentration at 6 h ([3]; male, Crj:CD (SD) IGS, rat, in vivo, po, 0.5 g/kg, Dried pulverized leaves oral, healthy rats (animals 3, 4), 6 h): 0.028 µg/mL | concentration at 12 h ([3]; male, Crj:CD (SD) IGS, rat, in vivo, po, 0.5 g/kg, Dried pulverized leaves oral, healthy rats (animals 3, 4), 12 h): 0.008 µg/mL | concentration at 24 h ([3]; male, Crj:CD (SD) IGS, rat, in vivo, po, 0.5 g/kg, Dried pulverized leaves oral, healthy rats (animals 3, 4), 24 h): 0.001 µg/mL | blood concentration ([4]; Crude extract I oral, rats (animals 3, 4), 0.5 h): 0.065 µg/mL | blood concentration ([4]; Crude extract I oral, rats (animals 3, 4), 1 h): 0.062 µg/mL | blood concentration ([4]; Crude extract I oral, rats (animals 3, 4), 2 h): 0.032 µg/mL | blood concentration ([4]; Crude extract I oral, rats (animals 3, 4), 4 h): 0.025 µg/mL | blood concentration ([4]; Crude extract I oral, rats (animals 3, 4), 8 h): 0.013 µg/mL | blood concentration ([4]; Crude extract I oral, rats (animals 3, 4), 24 h): 0.009 µg/mL | concentration at 0.5 h ([4]; male, Crj:CD(SD) IGS, rat, in vivo, po, 0.05 g/kg, Crude extract I oral, rats (animals 3, 4), 0.5 h, read-out: blood concentration): 0.054 µg/mL | concentration at 1 h ([4]; male, Crj:CD(SD) IGS, rat, in vivo, po, 0.05 g/kg, Crude extract I oral, rats (animals 3, 4), 1 h, read-out: blood concentration): 0.061 µg/mL | concentration at 2 h ([4]; male, Crj:CD(SD) IGS, rat, in vivo, po, 0.05 g/kg, Crude extract I oral, rats (animals 3, 4), 2 h): 0.04 µg/mL | concentration at 4 h ([4]; male, Crj:CD(SD) IGS, rat, in vivo, po, 0.05 g/kg, Crude extract I oral, rats (animals 3, 4), 4 h): 0.036 µg/mL | concentration at 8 h ([4]; male, Crj:CD(SD) IGS, rat, in vivo, po, 0.05 g/kg, Crude extract I oral, rats (animals 3, 4), 8 h): 0.024 µg/mL | concentration at 24 h ([4]; male, Crj:CD(SD) IGS, rat, in vivo, po, 0.05 g/kg, Crude extract I oral, rats (animals 3, 4), 24 h, read-out: blood concentration): 0.013 µg/mL | content dissolved in supernatant ([5]; Citrate buffer solution, pH 3): 0.612 mg/mL | content dissolved in supernatant ([5]; Citrate buffer solution, pH 4): 0.055 mg/mL | content dissolved in supernatant ([5]; Citrate buffer solution, pH 5): 0.0017 mg/mL | content dissolved in supernatant ([5]; Citrate buffer solution, pH 6): 0.0010 mg/mL | content dissolved in supernatant ([5]; Citric acid, pH 2.6): 0.786 mg/mL

CC[C@@]12CC(C(=O)OC)=C3Nc4cc5c(cc4[C@@]34CCN(C[C@H]3O[C@H]31)[C@@H]24)[C@@H]1[C@H](O5)[C@@H](O)[C@@]2(CC)CC(C(=O)OC)=C3Nc4c(cc(O)c(OC)c4OC)[C@@]34CCN1[C@@H]24 [Conophylline, conophylline]
regeneration of pancreatic β cells [1]: activate regeneration of pancreatic β cells | amount in Aqueous extract [2]: 2.62 µg/mL | amount in Lysate [2]: 0.04 µg/mL | amount in Centrifuged supernatant [2]: 2.22 µg/mL | amount in Centrifuged precipitate [2]: 0.48 µg/mL | amount in UF filtrate [2]: 0.00 µg/mL | amount in UF debris [2]: 2.39 µg/mL | time at which blood concentration reached its maximum ([3]; male, Crj:CD (SD) IGS, rat, in vivo, po): 1.5 h | blood concentration ([4]; male, Crj:CD(SD) IGS, rat, in vivo, po, 0.5 h): 0.398 µg/mL | blood concentration ([4]; male, Crj:CD(SD) IGS, rat, in vivo, po, 1 h): 0.472 µg/mL | blood concentration ([4]; male, Crj:CD(SD) IGS, rat, in vivo, po, 24 h): 0.108 µg/mL | concentration at 0.5 h [4, 6]: 0.332 µg/mL | concentration at 1 h [4, 6]: 0.27 µg/mL | concentration at 24 h [4, 6]: 0.09 µg/mL | content dissolved in supernatant ([5]; Citrate buffer solution, pH 3): 0.866 mg/mL | content dissolved in supernatant ([5]; Citrate buffer solution, pH 4): 0.093 mg/mL | content dissolved in supernatant ([5]; Citrate buffer solution, pH 5): 0.0018 mg/mL | content dissolved in supernatant ([5]; Citrate buffer solution, pH 6): 0.0009 mg/mL | content dissolved in supernatant ([5]; Citric acid, pH 2.6): 1.072 mg/mL
